Results on one compound are retold here after article PMC7542159, “Receptor occupancy of dual glucagon-like peptide 1/glucagon receptor agonist SAR425899 in individuals with type 2 diabetes” (Scientific Reports, 2020).

The subject of data set [1] is GLP1R. The conditions noted are these: higher at GLP1R; cited from earlier work. An excerpt: Noteworthy, the in vitro binding affinity for SAR425899 at the GLP1R was ~ fivefold higher than at the GCGR. This ratio of binding capacities has been chosen to prevent unwanted glucagon effects like increase of blood glucose. In fact, an increase of blood glucose has not been observed so far in a clinical setting. […] The exposure achieved with this dose in humans, however, might be too low to ...

Data set [2] is described as follows: Liver volume on CT images. Format: in vivo, human. The note with it: for Liver volume change: Fig. 2B. The method, then:
Both factors could potentially quantitatively impact the binding of [^68Ga]Ga-DO3A-Tuna-2 in the liver. Thus, the SUV55min at follow-up investigation was proportionally corrected for the decrease in liver volume compared to baseline. Additionally, SUV55min at baseline was corrected to the plasma glucagon value of the individual at follow-up to enable direct comparison between the PET assessments.
Marked weight loss and glucose lowering, as observed in this study, may have rapid and meaningful effects on the hepatic volume in short time periods, due primarily to the depletion of liver glycogen, which in turn bind large amounts of water. A reduction of the liver volume due to decrease in glycogen and water could likely affect the PET data by increasing the hepatocyte density (and in turn the GCGR density) per voxel. The liver volume was therefore assessed on CT images, and the [^68Ga]Ga-DO3A-Tuna-2 liver uptake SUV55min data corrected for the corresponding change in hepatic volume on an individual level. However, this correction may also introduce errors especially since there are inhomogeneities in GCGR expression levels in different parts of the liver (Fig. 3A,C,E). Furthermore, this correction assumes negligible changes on GCGR expression on hepatocytes over time. The occupancy data before the different corrections are therefore reported separately in Fig. 4C,D. Further corrections regarding the potentially non-isotropic GCGR expression could be attempted, but regardless the impact on the occupancy is expected to be low, while potentially introducing noise to the assessment. [^68Ga]Ga-DO3A-Exendin-4 uptake in pancreas is not expected to require correction, as no similar mechanism for rapid volume change is present in pancreas.

Data set [3] in a line: Plasma pharmacokinetics of SAR425899 (LC-MS/MS). The note with it: human, in vivo, sc, 0.2 mg. How it is done: Blood samples were collected at multiple time points after the last dose on Day 20 for measurement of SAR425899 in plasma using a liquid chromatography with tandem mass spectrometry (LC–MS/MS) method. Peak plasma concentrations (Cmax), time to Cmax (tmax) and area under the plasma concentration versus time curve for the last measurable plasma concentration (AUC0–last) were calculated using noncompartmental methods.

In data set [4] the target is T1, human GCGR (Homo sapiens, UniProt P47871).
T1 construct: expressed in transfected cells; host or cells: HEK293
T1 sequence (P47871 26-477): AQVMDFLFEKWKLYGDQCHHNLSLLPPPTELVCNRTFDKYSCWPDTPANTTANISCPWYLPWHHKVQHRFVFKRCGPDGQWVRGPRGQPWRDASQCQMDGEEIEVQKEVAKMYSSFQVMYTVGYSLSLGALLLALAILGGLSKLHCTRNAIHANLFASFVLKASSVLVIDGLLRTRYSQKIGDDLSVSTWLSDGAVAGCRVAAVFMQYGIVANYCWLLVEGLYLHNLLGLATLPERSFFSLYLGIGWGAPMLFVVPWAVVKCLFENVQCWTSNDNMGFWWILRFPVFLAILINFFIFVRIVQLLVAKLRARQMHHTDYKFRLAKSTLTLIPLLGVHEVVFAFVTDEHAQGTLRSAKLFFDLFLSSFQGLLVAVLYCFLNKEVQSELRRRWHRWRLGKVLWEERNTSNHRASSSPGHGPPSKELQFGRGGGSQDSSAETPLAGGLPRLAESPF
Briefly: In vitro displacement of [^68Ga]Ga-DO3A-Tuna-2 in HEK293 cells overexpressing the human GCGR. The note with it: pre-treatment with 50 µM, three independent experiments. In kind it is binding. How it is done: Figure 5 [^68Ga]Ga-DO3A-Tuna-2 was displaced by SAR525899 in vitro. HEK293 cells overexpressing the human GCGR were incubated with either [^68Ga]Ga-DO3A-Tuna-2 alone, or following pre-treatment with 50 µM SAR525899. Data from three independent repeated experiments. Stars indicate p < 0.001 as assessed by a Students t-test.

For `CCCCCCCCCCCCCCCC(=O)N[C@@H](CCC(=O)N[C@@H](CCC(=O)NCCCC[C@H](NC(=O)[C@H](CCC(N)=O)NC(=O)[C@H](CCCCN)NC(=O)[C@H](CO)NC(=O)[C@H](CC(C)C)NC(=O)[C@H](CC(=O)O)NC(=O)[C@H](CO)NC(=O)[C@@H](NC(=O)[C@H](Cc1ccccc1)NC(=O)[C@@H](NC(=O)CNC(=O)[C@H](CCC(N)=O)NC(=O)[C@@H](CO)NC(=O)[C@@H](N)Cc1c[nH]cn1)[C@@H](C)O)[C@@H](C)O)C(=O)N[C@@H](CCC(=O)O)C(=O)N[C@@H](CO)C(=O)N[C@@H](CCCCN)C(=O)N[C@@H](C)C(=O)N[C@@H](C)C(=O)N[C@@H](CCC(N)=O)C(=O)N[C@@H](CC(=O)O)C(=O)N[C@@H](Cc1ccccc1)C(=O)N[C@H](C(=O)N[C@@H](CCC(=O)O)C(=O)N[C@@H](Cc1c[nH]c2ccccc12)C(=O)N[C@@H](CC(C)C)C(=O)N[C@@H](CCCCN)C(=O)N[C@@H](C)C(=O)NCC(=O)NCC(=O)N1CCC[C@H]1C(=O)N[C@@H](CO)C(=O)N[C@@H](CO)C(=O)NCC(=O)N[C@@H](C)C(=O)N1CCC[C@H]1C(=O)N1CCC[C@H]1C(=O)N1CCC[C@H]1C(=O)N[C@@H](CO)C(N)=O)[C@@H](C)CC)C(=O)O)C(=O)O` [SAR425899], the “in vitro binding affinity at the GLP1R relative to the GCGR” value in data set [1] was “~ fivefold”. Also, the Liver volume change in data set [2] (0.12mg) is recorded as -0.8%; in data set [2] (0.2mg), -10.4%. In data set [2] (under treatment with SAR425899, average (SD)), the “decrease in liver volume” value is listed as 10.4 (6.1) %. Also, in data set [2] (under treatment with SAR425899, mean (SD), baseline 2.14 (0.45) dm^3), the “liver volume at follow up” value is given as 1.91 (0.36) dm^3. For the same compound, the AUC(0-t) in data set [3] came out at 217 ng·h/mL. Moreover, the peak concentration (Cmax) in data set [3] turned out to be 25.1 ng/mL. The time to peak (Tmax) in data set [3] was 7.62 h. Also, the “displacement of [^68Ga]Ga-DO3A-Tuna-2” value is listed as “competes for the same binding site” in data set [4] (p < 0.001) and “displaced” in data set [4] (p < 0.001, listed as SAR525899).

By AUC(0-t) is commonly meant the area under the concentration-time curve up to a stated or last time point. The Cmax is the maximum level reached in the sampled fluid or tissue. What is called Tmax is the time at which the peak concentration occurs.
